Experimental data published in ChEMBL document CHEMBL1139960 (Bioorg Med Chem Lett, 2007).
The source made the active and inactive calls. The rule behind the calls is not given here.

Columns and labels:
[1] = (§1) Antagonist activity at GABAC rho1 receptor expressed in Xenopus laevis oocytes assessed as reduction of GABA-induced chloride ion currents; format: functional, cell-based; settings: Homo sapiens, Oocyte
Oocyte [2] = test: as §1; format: functional, cell-based; settings: Homo sapiens
Oocyte [3] = test: Activity at GABAC rho1 receptor expressed in Xenopus laevis oocytes assessed as activation of GABA-induced chloride ion currents; format: cell-based; settings: Homo sapiens

Row | SMILES | IC50 [1] [µM] | Activity (Oocyte [2]) | Activity (Oocyte [3])
1 | CP(=O)(O)C1=CCNCC1 | 0.67 | – | –
2 | NCCOP(=O)(O)Cc1ccccc1 | – | inactive | inactive
3 | CCCCP(=O)(O)OCCN | 68.2 | – | –
